Assays:
FLT-3 = target: T1, FLT-3 (Homo sapiens, UniProt P36888); test: radioisotope-based P81 filter-binding assay, FLT-3 kinase; format: biochemical; conditions: for IC50: averaged from two independent dose-response curves, read-out: Enzyme assay IC50 FLT-3; for inhibition at 1 µM: compound at 1.0 μM, mean values (n=2), read-out: percent inhibition of enzyme catalytic activity, FLT-3 (numbers in parentheses)
T1 sequence (P36888 27-993): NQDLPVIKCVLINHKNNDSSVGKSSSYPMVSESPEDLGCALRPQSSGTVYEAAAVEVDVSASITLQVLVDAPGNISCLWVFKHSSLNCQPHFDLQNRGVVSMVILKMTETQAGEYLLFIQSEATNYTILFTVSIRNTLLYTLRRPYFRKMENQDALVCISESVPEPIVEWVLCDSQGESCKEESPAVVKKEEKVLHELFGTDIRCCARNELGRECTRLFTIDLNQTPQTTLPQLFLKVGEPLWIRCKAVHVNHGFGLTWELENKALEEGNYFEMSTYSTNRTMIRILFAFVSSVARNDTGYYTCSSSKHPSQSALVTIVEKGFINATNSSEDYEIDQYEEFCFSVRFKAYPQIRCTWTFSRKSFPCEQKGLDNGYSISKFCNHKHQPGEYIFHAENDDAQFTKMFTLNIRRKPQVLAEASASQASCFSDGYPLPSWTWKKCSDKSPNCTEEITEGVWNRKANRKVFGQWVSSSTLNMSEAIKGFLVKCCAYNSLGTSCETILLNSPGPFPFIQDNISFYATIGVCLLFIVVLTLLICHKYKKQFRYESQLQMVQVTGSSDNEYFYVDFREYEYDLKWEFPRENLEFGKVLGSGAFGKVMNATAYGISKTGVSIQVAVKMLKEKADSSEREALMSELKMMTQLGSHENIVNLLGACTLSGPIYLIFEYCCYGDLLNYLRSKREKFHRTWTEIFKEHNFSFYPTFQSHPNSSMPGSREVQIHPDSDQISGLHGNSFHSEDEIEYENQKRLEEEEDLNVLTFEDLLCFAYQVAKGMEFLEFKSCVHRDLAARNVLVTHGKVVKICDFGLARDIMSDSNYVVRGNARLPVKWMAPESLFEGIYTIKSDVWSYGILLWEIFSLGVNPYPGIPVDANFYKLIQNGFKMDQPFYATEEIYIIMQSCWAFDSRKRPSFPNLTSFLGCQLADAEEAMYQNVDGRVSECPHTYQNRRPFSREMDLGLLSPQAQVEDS
Protocol: (§1) Compounds of formula (I)-(IV) were evaluated for abilities in inhibiting protein kinases aurora B and FLT-3 activity using radioisotope-based P81 filter-binding assay (Table 1).

aurora B = aurora B (Homo sapiens, UniProt Q96GD4); test: radioisotope-based P81 filter-binding assay, aurora B kinase; format: biochemical; conditions: for IC50: averaged from two independent dose-response curves, read-out: Enzyme assay IC50 Aur B; for inhibition at 1 µM: compound at 1.0 μM, mean values (n=2), read-out: percent inhibition of enzyme catalytic activity, Aur B (numbers in parentheses)
Protocol: as §1

aurora B, sequence (Q96GD4 whole entry): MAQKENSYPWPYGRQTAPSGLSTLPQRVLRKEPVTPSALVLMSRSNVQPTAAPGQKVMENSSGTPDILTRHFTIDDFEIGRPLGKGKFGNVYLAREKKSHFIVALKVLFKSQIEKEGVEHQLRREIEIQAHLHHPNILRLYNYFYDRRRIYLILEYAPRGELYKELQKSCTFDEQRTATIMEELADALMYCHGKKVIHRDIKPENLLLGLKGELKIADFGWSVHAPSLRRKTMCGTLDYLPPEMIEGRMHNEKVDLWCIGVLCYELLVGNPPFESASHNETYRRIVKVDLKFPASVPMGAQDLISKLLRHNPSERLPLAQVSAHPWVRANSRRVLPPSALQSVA

| SMILES | melting point | IC50 (FLT-3) [nM] | IC50 (aurora B) [nM] | inhibition at 1 µM (FLT-3) [%] | inhibition at 1 µM (aurora B) [%] |
| --- | --- | --- | --- | --- | --- |
| COc1ccc(C(=O)NC(=O)Nc2ccc3c(c2)NC(=O)/C3=C\c2[nH]c(C)c(C(=O)N3CCOCC3)c2C)c(F)c1 [D66, (Z)—N-(3-((3,5-dimethyl-4-(morpholine-4-carbonyl)-1H-pyrrol-2-yl)methylene)-2-oxoindolin-6-ylcarbamoyl)-2-fluoro-4-methoxybenzamide] | 273 to 278 °C (dec.) | 79.5 | 16.8 | – | – |
| COc1ccc(N2CCN(C(=O)Nc3ccc4c(c3)NC(=O)/C4=C\c3ccc[nH]3)C2=O)cc1 [D91, (Z)—N-(3-((1H-pyrrol-2-yl)methylene)-2-oxoindolin-6-yl)-3-(4-methoxyphenyl)-2-oxoimidazolidine-1-carboxamide] | 294 to 299 °C (dec.) | – | – | 26 | 25.3 |
| O=C1Nc2cc(NC(=O)N3CCN(c4ccc(F)cc4)C3=O)ccc2/C1=C/c1ccc[nH]1 [D89, (Z)—N-(3-((1H-pyrrol-2-yl)methylene)-2-oxoindolin-6-yl)-3-(4-fluorophenyl)-2-oxoimidazolidine-1-carboxamide] | > 300 °C | 74.1 | 37.9 | – | – |
| Cc1[nH]c(/C=C2\C(=O)Nc3cc(NC(=O)NC(=O)c4ccc([N+](=O)[O-])cc4)ccc32)c(C)c1C(=O)O [D38, (Z)-2,4-dimethyl-5-((6-(3-(4-nitrobenzoyl)ureido)-2-oxoindolin-3-ylidene)methyl)-1H-pyrrole-3-carboxylic acid] | 293 to 298 °C (dec.) | > 1000 | 1.2 | – | – |
| Cc1[nH]c(/C=C2\C(=O)Nc3cc(NC(=O)NC(=O)c4ccccc4)ccc32)c(C)c1C(=O)O [D32, (Z)-5-((6-(3-benzoylureido)-2-oxoindolin-3-ylidene)methyl)-2,4-dimethyl-1H-pyrrole-3-carboxylic acid] | 270 to 275 °C (dec.) | 904 | 2.1 | – | – |
| O=C1Nc2cc(NC(=O)N3CCN(c4ccc(Cl)c(C(F)(F)F)c4)C3=O)ccc2/C1=C/c1ccc[nH]1 [D87, (Z)—N-(3-((1H-pyrrol-2-yl)methylene)-2-oxoindolin-6-yl)-3-(4-chloro-3-(trifluoromethyl)phenyl)-2-oxoimidazolidine-1-carboxamide] | > 300 °C | 569 | 1040 | – | – |
| O=C1Nc2cc(NC(=O)N3CCN(c4ccc(C(F)(F)F)cc4)C3=O)ccc2/C1=C/c1ccc[nH]1 [D88, (Z)—N-(3-((1H-pyrrol-2-yl)methylene)-2-oxoindolin-6-yl)-2-oxo-3-(4-(trifluoromethyl)phenyl)imidazolidine-1-carboxamide] | > 300 °C | 498 | 824 | – | – |
| COc1ccc(N2CCN(C(=O)Nc3ccc4c(c3)NC(=O)/C4=C\c3[nH]c(C)c(C(=O)O)c3C)C2=O)cc1 [D95, (Z)-5-((6-(3-(4-methoxyphenyl)-2-oxoimidazolidine-1-carboxamido)-2-oxoindolin-3-ylidene)methyl)-2,4-dimethyl-1H-pyrrole-3-carboxylic acid] | 267 to 272 °C (dec.) | 39.4 | 3.7 | – | – |
| Cc1cccc(C(=O)NC(=O)Nc2ccc3c(c2)NC(=O)/C3=C\c2[nH]c(C)c(CCC(=O)O)c2C)c1 [D40, (Z)-3-(2,4-dimethyl-5-((6-(3-(3-methylbenzoyl)ureido)-2-oxoindolin-3-ylidene)-methyl)-1H-pyrrol-3-yl)propanoic acid] | 240 to 245 °C (dec.) | 6.1 | 1.9 | – | – |
| CCOC(=O)c1c(C)[nH]c(/C=C2\C(=O)Nc3cc(NC(=O)NC(=O)c4ccc(OC)cc4F)ccc32)c1C [D62, (Z)-ethyl-5-((6-(3-(2-fluoro-4-methoxybenzoyl)ureido)-2-oxoindolin-3-ylidene)methyl)-2,4-dimethyl-1H-pyrrole-3-carboxylate] | 278 to 283 °C (dec.) | 2980 | 1720 | – | – |
| O=C1Nc2c(NC(=O)c3cccn(-c4ccc(F)cc4)c3=O)cccc2/C1=C/c1ccc[nH]1 [D118, (Z)—N-(3-((1H-pyrol-2-yl)methylene)-2-oxoindolin-7-yl)-1-(4-fluorophenyl)-2-oxo-1,2-dihydropyridine-3-carboxamide] | > 300 °C | > 1000 | > 1000 | – | – |
| O=C1Nc2ccc(NC(=O)c3cccn(-c4ccc(F)cc4)c3=O)cc2/C1=C/c1ccc[nH]1 [D104, (Z)—N-(3-((1H-pyrrol-2-yl)methylene)-2-oxoindolin-5-yl)-1-(4-fluorophenyl)-2-oxo-1,2-dihydropyridine-3-carboxamide] | > 300 °C | > 1000 | > 1000 | – | – |
| COc1ccc(C(=O)NC(=O)Nc2ccc3c(c2)NC(=O)/C3=C/c2ccc(Cl)cc2)cc1 [D18, (E)-N-(3-(4-chlorobenzylidene)-2-oxoindolin-6-ylcarbamoyl)-4-methoxybenz-amide] | 278 to 283 °C (dec.) | – | – | 6.1 | 12.8 |
| COc1ccc(C(=O)NC(=O)Nc2ccc3c(c2)NC(=O)/C3=C\c2[nH]c(C)c(C(=O)N3CCN(C)CC3)c2C)c(F)c1 [D64, (Z)—N-(3-((3,5-dimethyl-4-(4-methylpiperazine-1-carbonyl)-1H-pyrrol-2-yl)methylene)-2-oxoindolin-6-ylcarbamoyl)-2-fluoro-4-methoxybenzamide] | 250 to 255 °C (dec.) | 57.1 | 30.6 | – | – |
| COc1ccc(C(=O)NC(=O)Nc2ccc3c(c2)NC(=O)/C3=C\c2[nH]c(C)c(CCC(=O)N3CCOCC3)c2C)c(F)c1 [D67] | 248 to 253 °C (dec.) | 106 | 16.4 | – | – |
| COc1ccc(C(=O)NC(=O)Nc2cc3c(cc2F)/C(=C/c2[nH]c(C)c(CC(=O)O)c2C)C(=O)N3)cc1 [D50, (Z)-2-(5-((5-fluoro-6-(3-(4-methoxybenzoyl)ureido)-2-oxoindolin-3-ylidene)-methyl)-2,4-dimethyl-1H-pyrrol-3-yl)acetic acid] | 292 to 297 °C (dec.) | > 1000 | 1 | – | – |
| Cc1[nH]c(/C=C2\C(=O)Nc3cc(NC(=O)c4cccn(C)c4=O)ccc32)c(C)c1C(=O)O [D124, (Z)-2,4-dimethyl-5-((6-(1-methyl-2-oxo-1,2-dihydropyridine-3-carboxamido)-2-oxoindolin-3-ylidene)methyl)-1H-pyrrole-3-carboxylic acid] | > 300 °C | 4.2 | 14.3 | – | – |
| O=C1Nc2cccc(NC(=O)c3cccn(-c4ccc(F)cc4)c3=O)c2/C1=C/c1ccc[nH]1 [D103, (Z)—N-(3-((1H-pyrrol-2-yl)methylene)-2-oxoindolin-4-yl)-1-(4-fluorophenyl)-2-oxo-1,2-dihydropyridine-3-carboxamide] | > 300 °C | > 1000 | > 1000 | – | – |
| O=C1Nc2cc(NC(=O)N3CCN(c4ccc(Cl)c(Cl)c4)C3=O)ccc2/C1=C/c1ccc[nH]1 [D86, (Z)—N-(3-((1H-pyrrol-2-yl)methylene)-2-oxoindolin-6-yl)-3-(3,4-dichlorophenyl)-2-oxoimidazolidine-1-carboxamide] | > 300 °C | 501 | 145 | – | – |
| Cc1[nH]c(/C=C2\C(=O)Nc3cc(NC(=O)c4c[nH]cc(C)c4=O)ccc32)c(C)c1C(=O)O [D143, (Z)-2,4-dimethyl-5-((6-(5-methyl-4-oxo-1,4-dihydropyridine-3-carboxamido)-2-oxoindolin-3-ylidene)methyl)-1H-pyrrole-3-carboxylic acid] | > 300 °C | 194 | 3.7 | – | – |
| Cc1[nH]c(/C=C2\C(=O)Nc3cc(NC(=O)c4c[nH]cc(-c5cc(F)cc(F)c5)c4=O)ccc32)c(C)c1CCC(=O)O [D148, (Z)-3-(5-((6-(5-(3,5-difluorophenyl)-4-oxo-1,4-dihydropyridine-3-carboxamido)-2-oxoindolin-3-ylidene)methyl)-2,4-dimethyl-1H-pyrrol-3-yl)propanoic acid] | > 300 °C | 50.4 | 6.7 | – | – |
| O=C1Nc2cc(NC(=O)N3CCN(c4ccc(Cl)cc4)C3=O)ccc2/C1=C/c1ccc[nH]1 [D84, (Z)—N-(3-((1H-pyrrol-2-yl)methylene)-2-oxoindolin-6-yl)-3-(4-chlorophenyl)-2-oxoimidazolidine-1-carboxamide] | > 300 °C | 854 | > 10000 | – | – |
